Reference: article PMC12275099, “VX-445 (elexacaftor) inhibits chloride secretion across human bronchial epithelial cells by directly blocking KCa3.1 channels” (PNAS Nexus, 2025)

Tests used:
[1] = biological target: KCa2.3 (Homo sapiens, UniProt Q9UGI6); assay: Excised inside-out patch-clamp on HEK cells expressing KCa2.3; type: biochemical; conditions: 10 µM; 1 µM free Ca2+; n = 4; VX-659 added subsequent to VX-445; read-out: inhibition of KCa2.3 currents
Procedure: As above, we performed excised patch-clamp recordings on HEK cells heterologously expressing KCa2.3 or KCa2.2, in order to assess the activity of C2 CFTR corrector compounds. […] In contrast, the subsequent addition of 10 µM VX-659 yielded an almost complete inhibition of KCa2.3 currents, averaging 91 ± 3% (n = 4).
HEK cells stably expressing KCa3.1 (IK1, SK4), KCa2.3 (SK3), and KCa2.2 (SK2) were generated and cultured as previously described by us ([37], [66–71]).
HEK cells expressing the channel of interest were plated onto poly-L-lysine-coated glass coverslips 1–2 days prior to patch-clamp analysis. Electrophysiological recordings in the excised, inside-out, and whole-cell patch-clamp configurations were performed as recently described ([14]). For excised patch-clamp recordings, the pipette solution contained (in mM): 140 K-gluconate, 5 KCl, 1 CaCl2, 1 MgCl2, and 10 HEPES. The pH was adjusted to 7.2 with KOH. The bath solution contained (in mM): 145 K-gluconate, 5 KCl, 1.3 MgCl2, 10 HEPES, and 1 EGTA. Sufficient CaCl2 was added to obtain the desired free Ca^2+ concentration at a pH of 7.2 (adjusted with KOH). When recording KCa3.1 channels, ATP (300 µM) was added to the bath to diminish channel rundown ([73]). All recordings were carried out at a voltage of −100 mV, referenced to the extracellular compartment, as is standard. The apparent Ki and Hill coefficient for each CFTR corrector on KCa3.1, KCa2.3, and KCa2.2 were determined during a continuous recording by step-wise addition of increasing concentrations of compound and fitting the resultant relative remaining current to a Hill equation (Prism v. 10.1.0). The zero current level was determined by the addition of a 0 Ca^2+ solution (zero-added Ca^2+ plus 1 mM EGTA) at the end of the experiment. […] Current–voltage relationships were determined by stepping from a holding potential of −80 mV to +80 mV in 20 mV increments for 400 ms. The middle 300 ms of each trace was selected to avoid any influence of capacitive transients, and average currents were calculated for each voltage via the I–V tool in Clampfit. […]

[2] = tested on: corrected F508del CFTR-expressing HBEs; assay: Ussing chamber Isc, forskolin plus VX-770-stimulated Cl- secretion; type: cell-based, human
Procedure: It has been proposed that, similar to potentiation of basolateral KCa3.1, potentiation of apical BKCa would further stimulate Cl^− secretion across HBEs by increasing the electrochemical driving force for Cl^− exit across the apical membrane ([18], [19]). To assess this possibility, we determined whether acute addition of VX-445 affects forskolin-mediated Cl^− secretion across primary WT CFTR-expressing HBEs, using Isc measurements. […] Note, as VX-445 is a lipophilic compound, it was added to both apical and basolateral membranes. The addition of bumetanide (20 µM) further reduced Isc, as expected. […] In a total of nine filters from three separate donors, VX-445 inhibited an average of 47 ± 2% of the current, subsequent to VX-661 (P < 0.01). […] The current observed following forskolin stimulation consists of both bumetanide-sensitive Cl^− secretion and bumetanide-insensitive HCO3− secretion ([32–34]). Thus, we determined whether VX-445 would inhibit the remaining current subsequent to bumetanide. […] Given the surprising inhibition of Cl^− secretion observed, we chose to stimulate Cl^− secretion via an alternate mechanism and assess the effect of VX-445. […] Thus, we determined the effect of VX-445 on the DCEBIO-induced Cl^− secretory response. […] We next determined whether VX-445 would similarly decrease the forskolin-stimulated transepithelial Cl^− currents in corrected F508del HBEs. […]

KCa2.3, sequence (Q9UGI6 whole entry): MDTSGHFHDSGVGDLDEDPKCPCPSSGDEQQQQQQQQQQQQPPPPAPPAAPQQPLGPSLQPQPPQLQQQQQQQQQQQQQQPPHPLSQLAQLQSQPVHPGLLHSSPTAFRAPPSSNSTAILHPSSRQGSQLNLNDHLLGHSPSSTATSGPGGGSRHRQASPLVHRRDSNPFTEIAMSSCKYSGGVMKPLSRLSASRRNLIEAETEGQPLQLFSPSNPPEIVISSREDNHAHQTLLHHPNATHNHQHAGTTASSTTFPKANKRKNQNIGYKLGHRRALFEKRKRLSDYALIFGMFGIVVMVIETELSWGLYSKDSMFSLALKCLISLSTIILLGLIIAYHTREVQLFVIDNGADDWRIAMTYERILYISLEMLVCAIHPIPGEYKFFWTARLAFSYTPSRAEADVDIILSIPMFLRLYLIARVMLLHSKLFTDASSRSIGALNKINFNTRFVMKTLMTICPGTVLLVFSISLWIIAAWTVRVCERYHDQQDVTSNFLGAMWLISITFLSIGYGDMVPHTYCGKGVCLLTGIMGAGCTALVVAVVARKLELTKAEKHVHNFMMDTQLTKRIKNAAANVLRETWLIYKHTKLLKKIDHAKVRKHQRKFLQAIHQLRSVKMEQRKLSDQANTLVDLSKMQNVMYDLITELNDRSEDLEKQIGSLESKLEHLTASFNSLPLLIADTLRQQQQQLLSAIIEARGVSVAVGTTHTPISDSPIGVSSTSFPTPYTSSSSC

Cc1nn(C)cc1S(=O)(=O)NC(=O)c1ccc(-n2ccc(OCC(C)(C)C(F)(F)F)n2)nc1N1C[C@@H](C)CC1(C)C [VX-445, elexacaftor]
inhibition at 10 µM [1]: 15 ± 5%
Isc in the presence of VX-445 ([2]; Fig 1J, single filters, VX-445 10 µM after forskolin/VX-770): 10
decrease in forskolin plus VX-770-stimulated Isc ([2]; acute VX-445 10 µM, F508del corrected overnight with VX-445 1 µM plus VX-661 3 µM, 35 filters from five donors): 64 ± 2%
